From patent EP3130589A1, “HETEROCYCLIC AZA COMPOUNDS” (Grünenthal GmbH, priority 2015, dated 2017) come the findings set out here.

In this experiment the target is T1, TRPV1 human (Homo sapiens, UniProt Q8NER1).
T1 construct: expressed in transfected cells; host or cells: CHO K1 cells
The experiment can be described thus: Functional testing on the vanilloid receptor 1 (VR1/TRPV1): FLIPR Ca2+ influx assay, inhibition of capsaicin (CAP) stimulation. The experiment is classed as cell-based. Particulars: for Ki: functional (f) FLIPR assay, capsaicin (CAP) 100 nM, Ki from IC50 by Cheng-Prusoff equation; for inhibition at 5 µM: @ 5 µM compound; for TRPV1 human (f) CAP, result in words: ne = did not show any effect in this assay, pAG = partial agonist. On the procedure: Furthermore, preference may be given to compounds according to the invention that cause a 50 per cent displacement of capsaicin, which is present at a concentration of 100 nM, in a FLIPR assay with CHO K1 cells which were transfected with the human VR1 gene at a concentration of less than 6,000 nM, preferably less than 5,000 nM, more preferably less that 3,000 nM or less than 1,000 nM and particularly preferably less than 300 nM, most particularly preferably less than 100 nM, even more preferably less than 75 nM, additionally preferably less than 50 nM, most preferably less than 10 nM.
In the process, the Ca^2+ influx is quantified in the FLIPR assay with the aid of a Ca^2+-sensitive dye (type Fluo-4, Molecular Probes Europe BV, Leiden, the Netherlands) in a fluorescent imaging plate reader (FLIPR, Molecular Devices, Sunnyvale, USA), as described hereinafter.
Functional testing carried out on the vanilloid receptor 1 (VRI/TRPV1 receptor) […]
The number of cells in the suspension is set to 3 x 10^5 per mL and 150 µL of this suspension are in each case introduced into a recess in the cell culture plates coated as described hereinbefore. In the incubator the plates are left for two to three days at 37°C, 5 vol.-% of CO2 and 95 % relative humidity. Subsequently, the cells are loaded with 2 µM of Fluo-4 and 0.01 vol.-% of Pluronic F127 (Molecular Probes Europe BV, Leiden, the Netherlands) in HBSS buffer for 30 min at 37°C, washed 3 times with HBSS buffer and after further incubation for 15 min at RT used for Ca^2+ measurement in a FLIPR assay. The Ca^2+-dependent fluorescence is in this case measured before and after the addition of substances (λex = 488 nm, λem = 540 nm). Quantification is carried out by measuring the highest fluorescence intensity (FC, fluorescence counts) over time.
The FLIPR protocol consists of 2 substance additions. First the compounds to be tested (10 µM) are pipetted onto the cells and the Ca^2+ influx is compared with the control (capsaicin 10 µM). This provides the result in % activation based on the Ca^2+ signal after the addition of 10 µM of capsaicin (CP). After 5 min incubation, 100 nM of capsaicin are applied and the Ca^2+ influx is also determined. Desensitising agonists and antagonists lead to suppression of the Ca^2+ influx. The % inhibition is calculated compared to the maximum achievable inhibition with 10 µM of capsazepine.
Triple analyses (n=3) are carried out and repeated in at least 3 independent experiments (N=4). Starting from the percentage displacement caused by different concentrations of the compounds to be tested of general formula I, IC50 inhibitory concentrations which cause a 50% displacement of capsaicin were calculated.
Ki values for the test substances were obtained by conversion by means of the Cheng-Prusoff equation (Cheng, Prusoff; Biochem. Pharmacol. 22, 3099-3108, 1973).

The mark [1] stands for this setting: capsaicin (CAP) stimulus, relative to maximum achievable inhibition with 10 µM capsazepine, read-out: TRPV1 human (f) CAP, inhibition (in %).

T1 sequence (Q8NER1 whole entry): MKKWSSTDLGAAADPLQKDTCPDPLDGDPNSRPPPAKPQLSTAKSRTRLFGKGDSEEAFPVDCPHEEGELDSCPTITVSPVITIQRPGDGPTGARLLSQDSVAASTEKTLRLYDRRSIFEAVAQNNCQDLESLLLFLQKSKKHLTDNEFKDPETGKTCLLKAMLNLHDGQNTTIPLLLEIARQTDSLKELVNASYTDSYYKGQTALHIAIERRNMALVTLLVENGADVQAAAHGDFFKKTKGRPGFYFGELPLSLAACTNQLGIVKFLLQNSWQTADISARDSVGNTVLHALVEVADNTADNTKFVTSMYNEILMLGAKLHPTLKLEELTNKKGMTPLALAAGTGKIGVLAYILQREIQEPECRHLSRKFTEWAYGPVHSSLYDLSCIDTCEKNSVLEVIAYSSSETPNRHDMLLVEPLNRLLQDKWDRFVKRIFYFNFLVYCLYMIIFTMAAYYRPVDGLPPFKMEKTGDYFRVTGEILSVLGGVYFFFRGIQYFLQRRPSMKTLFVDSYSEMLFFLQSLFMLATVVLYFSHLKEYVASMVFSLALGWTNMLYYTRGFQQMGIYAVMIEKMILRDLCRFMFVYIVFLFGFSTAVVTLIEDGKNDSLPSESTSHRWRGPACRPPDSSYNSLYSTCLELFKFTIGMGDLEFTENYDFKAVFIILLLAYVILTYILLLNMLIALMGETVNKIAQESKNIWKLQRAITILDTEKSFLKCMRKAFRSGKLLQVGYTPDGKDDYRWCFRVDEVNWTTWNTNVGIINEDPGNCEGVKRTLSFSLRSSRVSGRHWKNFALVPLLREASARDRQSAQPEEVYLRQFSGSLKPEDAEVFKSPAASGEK

By Ki is commonly meant the dissociation constant of the complex between target and ligand, obtained from inhibition or displacement. In turn, `CC1CCN(c2nc(C(F)(F)F)ccc2CNC(=O)C(C)c2cn(C)c3ccc(O)cc23)CC1` (stereo not drawn) [example compound 1, 2-(5-hydroxy-1-methyl-1H-indol-3-yl)-N-((2-(4-methylpiperidin-1-yl)-6-(trifluoromethyl)pyridin-3-yl)methyl)propanamide] returned a Ki of 0.8 nM.

`COc1ccc2c(c1)c(CC(=O)NCc1ccc(C(F)(F)F)nc1N1CCC(C)CC1)cn2C` [example compound 2, 2-(5-methoxy-1-methyl-1H-indol-3-yl)-N-((2-(4-methylpiperidin-1-yl)-6-(trifluoromethyl)pyridin-3-yl)methyl)acetamide] had a Ki of 29.6 nM.

In the case of `CC(C(=O)NCc1ccc(C(F)(F)F)nc1C1CCCC1)c1cn(C)c2ccc(O)cc12` (stereo not drawn) [example compound 3, N-((2-cyclopentyl-6-(trifluoromethyl)pyridin-3-yl)methyl)-2-(5-hydroxy-1-methyl-1H-indol-3-yl)propanamide], the inhibitory constant (Ki) was determined as 4.8 nM.

As for `CCNc1nc(C(F)(F)F)ccc1CNC(=O)C(C)c1cn(C)c2ccc(O)cc12` (stereo not drawn) [example compound 4, N-((2-(ethylamino)-6-(trifluoromethyl)pyridin-3-yl)methyl)-2-(5-hydroxy-1-methyl-1H-indol-3-yl)propanamide], the Ki was 44.2 nM.

Turning to `CC(C(=O)NCc1ccc(C(F)(F)F)nc1N1CCCC1)c1cn(C)c2ccc(O)cc12` (stereo not drawn) [example compound 5, 2-(5-hydroxy-1-methyl-1H-indol-3-yl)-N-((2-(pyrrolidin-1-yl)-6-(trifluoromethyl)pyridin-3-yl)methyl)propanamide], the affinity, expressed as Ki, was 5 nM.

`CCCCNc1nc(C(F)(F)F)ccc1CNC(=O)C(C)c1cn(C)c2ccc(O)cc12` (stereo not drawn) [example compound 6, N-((2-(butylamino)-6-(trifluoromethyl)pyridin-3-yl)methyl)-2-(5-hydroxy-1-methyl-1H-indol-3-yl)propanamide] displayed a Ki of 16.2 nM.

For `CC(C(=O)NCc1ccc(C(F)(F)F)nc1OC1CCOCC1)c1cn(C)c2ccc(O)cc12` (stereo not drawn) [example compound 7, 2-(5-hydroxy-1-methyl-1H-indol-3-yl)-N-((2-((tetrahydro-2H-pyran-4-yl)oxy)-6-(trifluoromethyl)pyridin-3-yl)methyl)propanamide], the Ki came out at 29.1 nM.

Take `Cc1cccc(-c2nc(C(F)(F)F)ccc2CNC(=O)C(C)c2cn(C)c3ccc(O)cc23)c1` (stereo not drawn) [example compound 8, 2-(5-hydroxy-1-methyl-1H-indol-3-yl)-N-((2-(m-tolyl)-6-(trifluoromethyl)pyridin-3-yl)methyl)propanamide]: the Ki is 1.4 nM.

For the molecule `CC(C(=O)NCc1ccc(C(F)(F)F)nc1C1CCOCC1)c1cn(C)c2ccc(O)cc12` (stereo not drawn) [example compound 9, 2-(5-hydroxy-1-methyl-1H-indol-3-yl)-N-((2-(tetrahydro-2H-pyran-4-yl)-6-(trifluoromethyl)pyridin-3-yl)methyl)propanamide], affinity was put at a Ki of 45.7 nM.

Turning to `CC(C(=O)NCc1ccc(C(F)(F)F)nc1N1CCOCC1)c1cn(C)c2ccc(O)cc12` (stereo not drawn) [example compound 10, 2-(5-hydroxy-1-methyl-1H-indol-3-yl)-N-((2-morpholino-6-(trifluoromethyl)pyridin-3-yl)methyl)propanamide], affinity was put at a Ki of 29.3 nM.

The molecule `CC1CCN(c2nc(C(F)(F)F)ccc2CNC(=O)Cc2cn(C)c3ccc(O)cc23)CC1` [example compound 11, 2-(5-hydroxy-1-methyl-1H-indol-3-yl)-N-((2-(4-methylpiperidin-1-yl)-6-(trifluoromethyl)pyridin-3-yl)methyl)acetamide] had a Ki of 0.3 nM.

Molecule `COCCCc1nc(C(F)(F)F)ccc1CNC(=O)C(C)c1cn(C)c2ccc(O)cc12` (stereo not drawn) [example compound 12, 2-(5-hydroxy-1-methyl-1H-indol-3-yl)-N-((2-(3-methoxypropyl)-6-(trifluoromethyl)pyridin-3-yl)methyl)propanamide] yielded a Ki of 81 nM.

In the case of `CC(C(=O)NCc1ccc(C(F)(F)F)nc1N1CCCCC1)c1cn(C)c2ccc(O)cc12` (stereo not drawn) [example compound 13, 2-(5-hydroxy-1-methyl-1H-indol-3-yl)-N-((2-(piperidin-1-yl)-6-(trifluoromethyl)pyridin-3-yl)methyl)propanamide], the affinity corresponds to a Ki of 3.9 nM.

As to `CC1CCN(c2nc(C(F)(F)F)ccc2CNC(=O)C(C)c2cn(C)c3ccccc23)CC1` (stereo not drawn) [example compound 14, 2-(1-methyl-1H-indol-3-yl)-N-((2-(4-methylpiperidin-1-yl)-6-(trifluoromethyl)pyridin-3-yl)methyl)propanamide], the Ki worked out at 53 nM.

By inhibition is commonly meant how much of the control response was suppressed. With `COCCOCc1nc(C(F)(F)F)ccc1CNC(=O)C(C)c1cn(C)c2ccc(O)cc12` (stereo not drawn) [example compound 15, 2-(5-hydroxy-1-methyl-1H-indol-3-yl)-N-((2-((2-methoxyethoxy)methyl)-6-(trifluoromethyl)pyridin-3-yl)methyl)propanamide], under setting [1], the inhibition at 5 µM stood at 15%.

With `CCNc1nc(C(F)(F)F)ccc1CNC(=O)C(C)c1cn(C)c2ccc(OC)cc12` (stereo not drawn) [example compound 16, N-((2-(ethylamino)-6-(trifluoromethyl)pyridin-3-yl)methyl)-2-(5-methoxy-1-methyl-1H-indol-3-yl)propanamide], the “TRPV1 human (f) CAP, result in words” value is “ne”.

On to `CCNc1nc(C(F)(F)F)ccc1CNC(=O)Cc1cn(C)c2ccc(OC)cc12` [example compound 17, N-((2-(ethylamino)-6-(trifluoromethyl)pyridin-3-yl)methyl)-2-(5-methoxy-1-methyl-1H-indol-3-yl)acetamide], for which the inhibition at 1 µM (@ 1 µM compound, capsaicin (CAP) stimulus, relative to maximum achievable inhibition with 10 µM capsazepine, read-out: TRPV1 human (f) CAP, inhibition (in %)) is 0%. The inhibition at 5 µM under setting [1] was 35%.

Take `CCNc1nc(C(F)(F)F)ccc1CNC(=O)Cc1cn(C)c2ccc(O)cc12` [example compound 18, N-((2-(ethylamino)-6-(trifluoromethyl)pyridin-3-yl)methyl)-2-(5-hydroxy-1-methyl-1H-indol-3-yl)acetamide]: the Ki amounted to 8.2 nM.

In turn, `CCCCNc1nc(C(F)(F)F)ccc1CNC(=O)C(C)c1cn(C)c2ccc(OC)cc12` (stereo not drawn) [example compound 19, N-((2-(butylamino)-6-(trifluoromethyl)pyridin-3-yl)methyl)-2-(5-methoxy-1-methyl-1H-indol-3-yl)propanamide] displayed a Ki of 76.4 nM.

`Cn1cc(CC(=O)NCc2ccc(C(F)(F)F)nc2N2CCOCC2)c2cc(O)ccc21` [example compound 20, 2-(5-hydroxy-1-methyl-1H-indol-3-yl)-N-((2-morpholino-6-(trifluoromethyl)pyridin-3-yl)methyl)acetamide] registered a Ki of 16.5 nM.

For `Cn1cc(CC(=O)NCc2ccc(C(F)(F)F)nc2C2CCCC2)c2cc(O)ccc21` [example compound 21, N-((2-cyclopentyl-6-(trifluoromethyl)pyridin-3-yl)methyl)-2-(5-hydroxy-1-methyl-1H-indol-3-yl)acetamide], the Ki came to 8 nM.

With `CC(C(=O)NCc1ccc(C(F)(F)F)nc1CC1CCCCC1)c1cn(C)c2ccccc12` (stereo not drawn) [example compound 22, N-((2-(cyclohexylmethyl)-6-(trifluoromethyl)pyridin-3-yl)methyl)-2-(1-methyl-1H-indol-3-yl)propanamide], the Ki turned out to be 35.9 nM.

On to `CC1CCN(c2nc(C(F)(F)F)ccc2CNC(=O)Nc2nc3c(Cl)cccc3s2)CC1` [example compound 23, 1-(4-chlorobenzo[d]thiazol-2-yl)-3-((2-(4-methylpiperidin-1-yl)-6-(trifluoromethyl)pyridin-3-yl)methyl)urea], for which the “TRPV1 human (f) CAP, result in words” value is recorded as “ne”.
